Earlier results as cited in Sander's compilation of Henry's law constants.
Values joined by “and” are separate entries in the source; they are usually repeats but may differ in a detail not shown here. Equal entries are not always repeated. One block for each compound: values may come before it.

Test: Henry solubility constant Hcp at 298.15 K (mol/(m3 Pa))
Details: cited value
[1] = reference: Hine and Weimar (1965)
[2] = reference: Barcelo and Hennion (1997)
[3] = reference: Burkholder et al. (2015)
[4] = reference: Burkholder et al. (2019)
[5] = reference: Sander et al. (2006)
[6] = reference: Sander et al. (2011)
[7] = reference: Fogg and Sangster (2003)
[8] = reference: Plyasunov et al. (2006)

Henry solubility constant Hcp (reference: Goldstein (1982)): 37
SMILES: c1ccc2ncccc2c1 [benzo[b]pyridine]

SMILES: Clc1ccc(Cl)c(-c2cc(Cl)ccc2Cl)c1 [2,2',5,5'-tetrachlorobiphenyl]
Henry solubility constant Hcp (reference: Murphy et al. (1983b)): 0.038

SMILES: Brc1ccc(Oc2ccc(Br)cc2Br)cc1 [2,4,4'-tribromodiphenyl ether]
Henry solubility constant Hcp (reference: Wania and Dugani (2003)): 0.52

Henry solubility constant Hcp (reference: Brockbank (2013)): 0.029 | Henry solubility constant Hcp [1]: 0.0023
SMILES: COc1ccccc1 [methoxybenzene]

Henry solubility constant Hcp (reference: Brockbank (2013)): 0.0072
SMILES: CCOC(C)(C)C [ethyl tert-butyl ether]

Henry solubility constant Hcp (reference: Brockbank (2013)): 0.032
SMILES: CCCCCCCC(C)=O [2-nonanone]

Henry solubility constant Hcp (reference: Brockbank (2013)): 2.9e-06
SMILES: CC(C)CC(C)C [2,4-dimethylpentane]

SMILES: CCOC1Oc2ccc(OS(C)(=O)=O)cc2C1(C)C (stereo not drawn) [ethofumesate]
Henry solubility constant Hcp [2]: 45

Henry solubility constant Hcp (reference: Brockbank (2013)): 0.00012
SMILES: C#CCCCCCC [1-octyne]

SMILES: ClCCl [dichloromethane]
Henry solubility constant Hcp (reference: Brockbank (2013)): 0.0037 | Henry solubility constant Hcp [3]: 0.0039 | Henry solubility constant Hcp [4]: 0.0039 | Henry solubility constant Hcp (reference: Dilling (1977)): 0.0037 | Henry solubility constant Hcp (reference: Dilling et al. (1975)): 0.0037 | Henry solubility constant Hcp (reference: Goldstein (1982)): 0.0031 | Henry solubility constant Hcp (reference: Harrison et al. (1993)): 0.0042 and 0.0034 | Henry solubility constant Hcp [5]: 0.0036 | Henry solubility constant Hcp [6]: 0.0036

Henry solubility constant Hcp (reference: Brockbank (2013)): 0.0024 | Henry solubility constant Hcp [7]: 0.0027
SMILES: Cc1cccc(C)c1C [1,2,3-trimethylbenzene]

Henry solubility constant Hcp (reference: Brockbank (2013)): 0.53
SMILES: CCCCCCCO [1-heptanol]

SMILES: CC(C)C#N [2-methylpropanenitrile]
Henry solubility constant Hcp (reference: Brockbank (2013)): 0.11 | Henry solubility constant Hcp [8]: 0.1

SMILES: CC(O)CO (stereo not drawn) [1,2-propanediol]
Henry solubility constant Hcp [3]: 2700 | Henry solubility constant Hcp [4]: 2700

Henry solubility constant Hcp (reference: Brockbank (2013)): 4.6e-08
SMILES: FC(F)(F)C(F)(F)C(F)(F)C(F)(F)C(F)(F)F [dodecafluoropentane]

Henry solubility constant Hcp (reference: Brockbank (2013)): 0.76
SMILES: CCC(C)CO (stereo not drawn) [2-methyl-1-butanol]

Henry solubility constant Hcp (reference: Goldstein (1982)): 1.7
SMILES: CC1=CC(=O)CC(C)(C)C1 [3,5,5-trimethyl-2-cyclohexen-1-one]

Henry solubility constant Hcp (reference: Brockbank (2013)): 0.11
SMILES: CC(=O)C(C)C [3-methyl-2-butanone]

SMILES: O=NN(c1ccccc1)c1ccccc1 [N-nitrosodiphenylamine]
Henry solubility constant Hcp (reference: Mackay et al. (1995)): 0.015

SMILES: NCl [chloramine]
Henry solubility constant Hcp [3]: 0.86 | Henry solubility constant Hcp [4]: 0.86 | Henry solubility constant Hcp [5]: 0.86 | Henry solubility constant Hcp [6]: 0.86

Henry solubility constant Hcp (reference: Goldstein (1982)): 140 | Henry solubility constant Hcp (reference: Howard (1989)): 140
SMILES: O=C(O)c1ccccc1 [benzenecarboxylic acid]

Henry solubility constant Hcp (reference: Brockbank (2013)): 0.33 | Henry solubility constant Hcp [7]: 0.17 | Henry solubility constant Hcp (reference: Goldstein (1982)): 0.35 | Henry solubility constant Hcp (reference: McCarty (1980)): 0.007 | Henry solubility constant Hcp (reference: Smith et al. (1981a)): 0.1
SMILES: c1ccc2cc3ccccc3cc2c1 [anthracene]

Henry solubility constant Hcp (reference: Howard (1993)): 25
SMILES: OCc1ccccc1 [(hydroxymethyl)-benzene]

SMILES: C=CCl [chloroethene]
Henry solubility constant Hcp (reference: Brockbank (2013)): 0.00043 | Henry solubility constant Hcp [3]: 0.00038 | Henry solubility constant Hcp [4]: 0.00038

SMILES: CCCCC(O)(Cn1cncn1)c1ccc(Cl)cc1Cl (stereo not drawn) [hexaconazole]
Henry solubility constant Hcp [2]: 28

Henry solubility constant Hcp (reference: Brockbank (2013)): 0.0041
SMILES: Cc1cccs1 [2-methylthiophene]

SMILES: CCOP(=O)(OCC)OC(=CCl)c1ccc(Cl)cc1Cl [chlorfenvinphos]
Henry solubility constant Hcp [2]: 35

SMILES: CC1CO1 (stereo not drawn) [1,2-epoxypropane]
Henry solubility constant Hcp (reference: Goldstein (1982)): 0.052 and 0.051

Henry solubility constant Hcp (reference: Brockbank (2013)): 3.4e-06
SMILES: CCCCCCCC [octane]

SMILES: CC(C)O [2-propanol]
Henry solubility constant Hcp (reference: Brockbank (2013)): 1.2 | Henry solubility constant Hcp [3]: 1.2 | Henry solubility constant Hcp [4]: 1.2 | Henry solubility constant Hcp [7]: 1.2 | Henry solubility constant Hcp [1]: 1.7 | Henry solubility constant Hcp [5]: 1.3 | Henry solubility constant Hcp [6]: 1.3

Henry solubility constant Hcp (reference: Brockbank (2013)): 0.32
SMILES: CCCCC(O)CC (stereo not drawn) [3-heptanol]

Henry solubility constant Hcp (reference: Brockbank (2013)): 0.017
SMILES: CCCCCOC(=O)CCC [pentyl butanoate]

SMILES: C[Si](Cn1cncn1)(c1ccc(F)cc1)c1ccc(F)cc1 [flusilazole]
Henry solubility constant Hcp [2]: 27

SMILES: Cc1ccc(C)cc1 [1,4-dimethylbenzene]
Henry solubility constant Hcp (reference: Brockbank (2013)): 0.0014 | Henry solubility constant Hcp [7]: 0.0019 | Henry solubility constant Hcp (reference: Foster et al. (1994)): 0.0014

SMILES: CNC=O [N-methylmethanamide]
Henry solubility constant Hcp (reference: Brockbank (2013)): 1400 | Henry solubility constant Hcp [3]: 1400 | Henry solubility constant Hcp [4]: 1400

SMILES: CC(C)OC(=O)Nc1cccc(Cl)c1 [chlorpropham]
Henry solubility constant Hcp [2]: 47

Henry solubility constant Hcp (reference: Brockbank (2013)): 2
SMILES: O=COCc1ccccc1 [benzyl methanoate]

SMILES: N#Cc1c(Cl)c(Cl)c(Cl)c(C#N)c1Cl [2,4,5,6-tetrachloro-1,3-dicyanobenzene]
Henry solubility constant Hcp (reference: MacBean (2012b)): 39

SMILES: c1ccc2cc3cc4ccccc4cc3cc2c1 [naphthacene]
Henry solubility constant Hcp (reference: Mackay et al. (1992b)): 250

SMILES: CC[N+](=O)[O-] [nitroethane]
Henry solubility constant Hcp (reference: Brockbank (2013)): 0.21 | Henry solubility constant Hcp [3]: 0.21 | Henry solubility constant Hcp [4]: 0.21 | Henry solubility constant Hcp (reference: Gaffney and Senum (1984)): 0.21 | Henry solubility constant Hcp [5]: 0.21 | Henry solubility constant Hcp [6]: 0.21

Henry solubility constant Hcp (reference: Brockbank (2013)): 1.1e-05
SMILES: C=CCCCCCCC [1-nonene]

SMILES: ClC=CCCl [1,3-dichloropropene]
Henry solubility constant Hcp [2]: 2.4e-05 | Henry solubility constant Hcp (reference: Goldstein (1982)): 0.0028 | Henry solubility constant Hcp (reference: Horvath and Getzen (1999)): 0.0028

SMILES: c1ccc(-c2ccccc2)cc1 [biphenyl]
Henry solubility constant Hcp (reference: Brockbank (2013)): 0.036

SMILES: O=C(O)CBr [bromoethanoic acid]
Henry solubility constant Hcp [3]: 1500 | Henry solubility constant Hcp [4]: 1500 | Henry solubility constant Hcp [6]: 1500

Henry solubility constant Hcp (reference: Clever (1979b)): 9.1e-05
SMILES: [Rn] [radon]

Henry solubility constant Hcp (reference: Brockbank (2013)): 0.39
SMILES: CCCCC(C)O (stereo not drawn) [2-hexanol]

SMILES: Clc1cccc(Cl)c1Cl [1,2,3-trichlorobenzene]
Henry solubility constant Hcp (reference: Brockbank (2013)): 0.0062

Henry solubility constant Hcp (reference: Brockbank (2013)): 0.6
SMILES: CCC(O)CC [3-pentanol]

Henry solubility constant Hcp (reference: Brockbank (2013)): 2.7e-06
SMILES: CCCC(C)CCC [4-methylheptane]

SMILES: CN(C)C(=O)Nc1cccc(C(F)(F)F)c1 [fluometuron]
Henry solubility constant Hcp (reference: HSDB (2015)): 3800

Henry solubility constant Hcp (reference: Brockbank (2013)): 0.92
SMILES: Cc1cccc(C)n1 [2,6-dimethylpyridine]

Henry solubility constant Hcp (reference: Brockbank (2013)): 0.023
SMILES: CC(C)C(=O)C(C)C [2,4-dimethyl-3-pentanone]

SMILES: CC(=O)C(C)(C)C [3,3-dimethyl-2-butanone]
Henry solubility constant Hcp (reference: Brockbank (2013)): 0.043

SMILES: BrC(Br)Br [tribromomethane]
Henry solubility constant Hcp (reference: Brockbank (2013)): 0.018 | Henry solubility constant Hcp [3]: 0.017 | Henry solubility constant Hcp [4]: 0.017 | Henry solubility constant Hcp (reference: Goldstein (1982)): 0.018 | Henry solubility constant Hcp (reference: Nicholson et al. (1984)): 0.017 | Henry solubility constant Hcp [5]: 0.017 | Henry solubility constant Hcp [6]: 0.017

SMILES: CC(=O)OO [ethanoic peroxyacid]
Henry solubility constant Hcp [3]: 8.3 | Henry solubility constant Hcp [4]: 8.3 | Henry solubility constant Hcp [6]: 8.3

SMILES: CCCC [butane]
Henry solubility constant Hcp [3]: 1.2e-05 | Henry solubility constant Hcp [4]: 1.2e-05 | Henry solubility constant Hcp (reference: Deno and Berkheimer (1960)): 1.1e-05 | Henry solubility constant Hcp (reference: Hayduk (1986)): 1.2e-05 | Henry solubility constant Hcp [5]: 1.2e-05 | Henry solubility constant Hcp [6]: 1.2e-05

SMILES: OCC(F)(F)C(F)F [2,2,3,3-tetrafluoro-1-propanol]
Henry solubility constant Hcp [3]: 1.4 | Henry solubility constant Hcp [4]: 1.4 | Henry solubility constant Hcp [6]: 1.4

Henry solubility constant Hcp (reference: Brockbank (2013)): 0.22
SMILES: CC(C)CC(C)O (stereo not drawn) [4-methyl-2-pentanol]

SMILES: CS(C)=O [dimethylsulfoxide]
Henry solubility constant Hcp (reference: Betterton (1992)): 14 | Henry solubility constant Hcp (reference: Brockbank (2013)): 8000 | Henry solubility constant Hcp [3]: 980 | Henry solubility constant Hcp [4]: 980 | Henry solubility constant Hcp [5]: 980 | Henry solubility constant Hcp [6]: 980

SMILES: [H] [hydrogen atom]
Henry solubility constant Hcp [3]: 2.6e-06 | Henry solubility constant Hcp [4]: 2.6e-06 | Henry solubility constant Hcp [5]: 2.6e-06 | Henry solubility constant Hcp [6]: 2.6e-06

SMILES: O=C(O)C(Br)(Br)Br [tribromoethanoic acid]
Henry solubility constant Hcp [3]: 3000 | Henry solubility constant Hcp [4]: 3000 | Henry solubility constant Hcp [6]: 3000

Henry solubility constant Hcp (reference: Brockbank (2013)): 12 | Henry solubility constant Hcp (reference: Howard (1989)): 11
SMILES: Cc1cccc(O)c1 [1-hydroxy-3-methylbenzene]

SMILES: FN(F)F [nitrogen trifluoride]
Henry solubility constant Hcp [3]: 7.9e-06 | Henry solubility constant Hcp [4]: 7.9e-06 | Henry solubility constant Hcp [6]: 7.9e-06

SMILES: C=CC1(C)OC(=O)N(c2cc(Cl)cc(Cl)c2)C1=O (stereo not drawn) [vinclozoline]
Henry solubility constant Hcp [2]: 7.6

Henry solubility constant Hcp (reference: Brockbank (2013)): 2.9e-06
SMILES: CCCCC(C)C [2-methylhexane]

Henry solubility constant Hcp (reference: Brockbank (2013)): 0.05
SMILES: CCCCCCC(C)=O [2-octanone]

Henry solubility constant Hcp [2]: 0.01
SMILES: CCCN(CCC)C(=O)SCC [S-ethyl dipropylthiocarbamate]

Henry solubility constant Hcp (reference: Brockbank (2013)): 15
SMILES: c1ccc2c(c1)-c1cccc3c1c-2cc1ccccc13 [benzo[b]fluoranthene]

SMILES: COC(=O)c1ccccc1C(=O)OC [dimethyl phthalate]
Henry solubility constant Hcp (reference: Brockbank (2013)): 51 | Henry solubility constant Hcp (reference: Goldstein (1982)): 29 and 30 | Henry solubility constant Hcp (reference: McCarty (1980)): 23

SMILES: FC(F)Cl [chlorodifluoromethane]
Henry solubility constant Hcp [3]: 0.00035 | Henry solubility constant Hcp [4]: 0.00035 | Henry solubility constant Hcp [6]: 0.00034

SMILES: COP(=O)(OC)C(O)C(Cl)(Cl)Cl (stereo not drawn)
Henry solubility constant Hcp [2]: 5800

SMILES: N#CCc1ccccc1 [benzeneacetonitrile]
Henry solubility constant Hcp (reference: Brockbank (2013)): 1.1

Henry solubility constant Hcp (reference: Brockbank (2013)): 3.3e-06
SMILES: CC(C)C(C)C(C)C [2,3,4-trimethylpentane]

SMILES: COc1ccc(-c2ccccc2)cc1NNC(=O)OC(C)C [bifenazate]
Henry solubility constant Hcp (reference: MacBean (2012b)): 1000

SMILES: CCCCCC#N [hexanenitrile]
Henry solubility constant Hcp [8]: 0.12
